Ends that are not written are not given here. Peptide text beside a SMILES is read from it. * marks the point of attachment. Biotin = O=C1N[C@H]2[C@H](CS[C@H]2CCCCC(=O)*)N1

In US20050282743A1, “Molecular interactions in cells” (Arbor Vita Corporation, priority 2001, published 2005) one finds Classification data, which are given here for ten molecules.

Test in all cases: G' assay (10 uM PL peptide), results of TABLE 7 and TABLE 12
What all share (format): binding

For test [1], the target named is T1, PDZ protein (GST-PDZ fusion) (Homo sapiens, UniProt Q6P0Q8).
T1 construct: made in house; host or cells: E. coli (DH5alpha, BL21 or JM109)
T1 sequence (Q6P0Q8 whole entry, the tested form may be a part): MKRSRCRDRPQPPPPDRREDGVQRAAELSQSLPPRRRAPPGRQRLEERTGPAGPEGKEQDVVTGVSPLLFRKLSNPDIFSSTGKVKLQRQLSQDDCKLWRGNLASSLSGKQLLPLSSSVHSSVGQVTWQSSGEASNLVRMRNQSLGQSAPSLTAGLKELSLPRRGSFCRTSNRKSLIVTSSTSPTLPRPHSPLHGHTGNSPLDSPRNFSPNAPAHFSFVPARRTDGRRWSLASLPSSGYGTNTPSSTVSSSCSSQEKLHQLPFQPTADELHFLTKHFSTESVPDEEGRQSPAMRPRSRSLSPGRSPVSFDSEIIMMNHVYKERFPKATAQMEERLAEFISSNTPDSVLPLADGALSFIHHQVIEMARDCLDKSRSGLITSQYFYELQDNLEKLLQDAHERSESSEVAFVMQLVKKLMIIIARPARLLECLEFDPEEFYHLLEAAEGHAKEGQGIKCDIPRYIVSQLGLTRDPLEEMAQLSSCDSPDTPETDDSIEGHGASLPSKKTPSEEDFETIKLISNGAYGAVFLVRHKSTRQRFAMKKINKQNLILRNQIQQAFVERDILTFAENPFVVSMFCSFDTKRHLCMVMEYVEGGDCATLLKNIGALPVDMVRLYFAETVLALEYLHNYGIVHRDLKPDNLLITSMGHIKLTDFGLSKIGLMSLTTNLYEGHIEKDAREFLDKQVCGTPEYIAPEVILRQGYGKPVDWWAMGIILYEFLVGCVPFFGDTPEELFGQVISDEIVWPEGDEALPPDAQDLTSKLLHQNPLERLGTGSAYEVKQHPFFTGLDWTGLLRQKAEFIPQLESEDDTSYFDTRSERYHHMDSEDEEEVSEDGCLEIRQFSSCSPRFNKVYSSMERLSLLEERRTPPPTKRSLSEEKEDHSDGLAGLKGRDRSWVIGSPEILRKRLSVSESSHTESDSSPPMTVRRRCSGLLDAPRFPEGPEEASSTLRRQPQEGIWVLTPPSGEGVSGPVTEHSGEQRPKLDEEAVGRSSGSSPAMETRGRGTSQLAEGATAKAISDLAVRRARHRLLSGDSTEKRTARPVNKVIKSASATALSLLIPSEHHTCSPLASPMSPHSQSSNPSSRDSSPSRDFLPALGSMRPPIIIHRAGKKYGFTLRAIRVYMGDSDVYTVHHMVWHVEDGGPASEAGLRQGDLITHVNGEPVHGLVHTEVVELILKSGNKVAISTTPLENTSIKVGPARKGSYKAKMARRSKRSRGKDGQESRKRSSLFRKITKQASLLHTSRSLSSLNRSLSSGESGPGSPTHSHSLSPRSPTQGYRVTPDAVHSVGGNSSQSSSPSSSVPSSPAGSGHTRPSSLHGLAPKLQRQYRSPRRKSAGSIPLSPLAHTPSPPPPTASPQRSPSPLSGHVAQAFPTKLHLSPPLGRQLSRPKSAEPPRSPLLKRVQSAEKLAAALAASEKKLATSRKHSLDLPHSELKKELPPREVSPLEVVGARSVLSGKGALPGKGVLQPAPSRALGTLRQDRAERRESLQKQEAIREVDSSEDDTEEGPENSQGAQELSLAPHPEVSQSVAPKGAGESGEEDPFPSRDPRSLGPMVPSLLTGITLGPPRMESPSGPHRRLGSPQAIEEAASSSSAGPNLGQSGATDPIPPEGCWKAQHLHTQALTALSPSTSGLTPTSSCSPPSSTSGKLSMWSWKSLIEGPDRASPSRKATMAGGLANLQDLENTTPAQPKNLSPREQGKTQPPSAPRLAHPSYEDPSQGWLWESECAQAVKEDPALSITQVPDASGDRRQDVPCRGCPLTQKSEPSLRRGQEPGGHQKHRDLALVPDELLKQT
Put shortly: (§1)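 Same steps as the G-zero format, apart from a peptide concentration of 10 uM in place of 20 uM in step 2. Amino-terminally biotinylated PL peptides bind GST-PDZ fusions, and retained peptide is quantified by 450 nm absorbance.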

Test [2] deals with T2, PDZ protein (GST-PDZ fusion) (Homo sapiens, UniProt Q96JH8).
T2 construct: made in house; host or cells: E. coli (DH5alpha, BL21 or JM109)
T2 sequence (Q96JH8 1-1075): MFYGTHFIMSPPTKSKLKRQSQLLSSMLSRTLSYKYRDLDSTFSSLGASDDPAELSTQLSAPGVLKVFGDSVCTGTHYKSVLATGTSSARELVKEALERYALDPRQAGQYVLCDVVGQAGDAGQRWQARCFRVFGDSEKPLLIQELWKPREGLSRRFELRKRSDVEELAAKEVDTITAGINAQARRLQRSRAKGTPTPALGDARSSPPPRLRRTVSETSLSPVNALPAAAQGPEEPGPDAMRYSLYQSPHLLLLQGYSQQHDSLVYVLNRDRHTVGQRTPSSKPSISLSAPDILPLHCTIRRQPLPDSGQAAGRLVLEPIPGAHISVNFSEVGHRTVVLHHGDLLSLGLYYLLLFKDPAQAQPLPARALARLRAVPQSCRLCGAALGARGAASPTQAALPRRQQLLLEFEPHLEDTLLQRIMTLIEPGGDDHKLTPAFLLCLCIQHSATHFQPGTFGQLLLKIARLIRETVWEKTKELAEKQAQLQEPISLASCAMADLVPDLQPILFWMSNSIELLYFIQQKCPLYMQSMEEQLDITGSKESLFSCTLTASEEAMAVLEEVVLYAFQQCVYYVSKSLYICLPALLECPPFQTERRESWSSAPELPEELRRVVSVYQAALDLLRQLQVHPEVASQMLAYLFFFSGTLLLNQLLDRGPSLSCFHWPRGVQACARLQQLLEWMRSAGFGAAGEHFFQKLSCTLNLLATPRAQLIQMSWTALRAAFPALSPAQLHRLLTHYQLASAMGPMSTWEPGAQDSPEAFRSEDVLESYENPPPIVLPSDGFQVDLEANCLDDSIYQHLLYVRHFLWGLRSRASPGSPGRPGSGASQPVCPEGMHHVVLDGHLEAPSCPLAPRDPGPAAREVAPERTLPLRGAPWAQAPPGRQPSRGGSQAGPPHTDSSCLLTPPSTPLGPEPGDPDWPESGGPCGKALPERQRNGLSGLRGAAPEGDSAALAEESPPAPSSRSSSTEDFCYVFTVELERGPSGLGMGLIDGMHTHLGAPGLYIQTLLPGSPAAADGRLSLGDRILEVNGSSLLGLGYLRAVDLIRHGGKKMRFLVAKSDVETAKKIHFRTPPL
To be noted: PDZ FLJ 10324, PDZ Domain 1. In a few lines: as §1

The target in test [3] is T3, PDZ protein (GST-PDZ fusion) (Homo sapiens, UniProt Q02410).
T3 construct: made in house; host or cells: E. coli (DH5alpha, BL21 or JM109)
T3 sequence (Q02410 1-837): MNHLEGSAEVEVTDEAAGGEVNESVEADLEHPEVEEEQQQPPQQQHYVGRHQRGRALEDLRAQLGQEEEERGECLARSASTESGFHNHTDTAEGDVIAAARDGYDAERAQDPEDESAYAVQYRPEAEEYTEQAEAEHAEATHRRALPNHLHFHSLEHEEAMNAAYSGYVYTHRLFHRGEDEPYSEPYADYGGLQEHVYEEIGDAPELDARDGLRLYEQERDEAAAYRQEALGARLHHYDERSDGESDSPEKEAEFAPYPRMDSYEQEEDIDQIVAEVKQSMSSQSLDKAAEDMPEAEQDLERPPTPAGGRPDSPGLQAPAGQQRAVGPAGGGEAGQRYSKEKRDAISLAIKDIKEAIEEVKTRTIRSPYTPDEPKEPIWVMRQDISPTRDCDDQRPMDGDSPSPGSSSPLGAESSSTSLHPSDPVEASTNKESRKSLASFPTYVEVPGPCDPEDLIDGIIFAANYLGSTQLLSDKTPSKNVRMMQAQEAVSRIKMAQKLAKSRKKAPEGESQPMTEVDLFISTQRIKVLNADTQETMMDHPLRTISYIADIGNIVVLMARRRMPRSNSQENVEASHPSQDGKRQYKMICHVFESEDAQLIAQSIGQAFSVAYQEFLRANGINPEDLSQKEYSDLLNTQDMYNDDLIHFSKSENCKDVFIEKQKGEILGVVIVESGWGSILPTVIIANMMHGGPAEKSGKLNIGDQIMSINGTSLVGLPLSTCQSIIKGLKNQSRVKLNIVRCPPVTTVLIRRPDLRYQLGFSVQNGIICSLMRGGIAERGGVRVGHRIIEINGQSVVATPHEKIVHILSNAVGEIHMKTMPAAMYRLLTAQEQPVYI
In a few lines:
as §1

Take `CC(C)C[C@H](NC(=O)[C@H](Cc1c[nH]c2ccccc12)NC(=O)[C@H](Cc1c[nH]cn1)NC(=O)[C@H](CCCNC(=N)N)NC(=O)[C@H](CC(C)C)NC(=O)[C@@H](NC(=O)[C@H](Cc1ccccc1)NC(=O)[C@H](CCC(N)=O)NC(=O)[C@H](CCCNC(=N)N)NC(=O)[C@@H](NC(=O)[C@H](CCC(=O)O)NC(=O)CNC(=O)[C@H](CCCNC(=N)N)NC(=O)[C@H](CC(=O)O)NC(=O)[C@@H](NC(=O)[C@H](CC(C)C)NC(=O)[C@H](CCC(=O)O)NC(=O)[C@H](CCCNC(=N)N)NC(=O)CCCC[C@@H]1SC[C@@H]2NC(=O)N[C@@H]21)C(C)C)C(C)C)[C@@H](C)O)C(=O)N[C@@H](CCCCN)C(=O)N[C@H](C(=O)O)C(C)C` [Dopamine transporter (Na+-dependent)] (Biotin-RELVDRGEVRQFTLRHWLKV-OH; C-terminus assumed): the Classification is listed as 4 (A450 nm 3-4) in test [1] (PDZ KIAA807); 4 (A450 nm 3-4) in test [1] (PDZ KIAA0807(S), PDZ Domain 1); 5 (A450 nm of 4 more than 2× repeated) in test [2].

In the case of `CC(C)C[C@H](NC(=O)CNC(=O)[C@@H](NC(=O)[C@H](CO)NC(=O)[C@H](CC(N)=O)NC(=O)[C@H](Cc1ccccc1)NC(=O)CNC(=O)[C@H](C)NC(=O)[C@H](C)NC(=O)[C@H](Cc1ccccc1)NC(=O)[C@@H](NC(=O)CCCC[C@@H]1SC[C@@H]2NC(=O)N[C@@H]21)[C@@H](C)O)[C@@H](C)O)C(=O)N1CCC[C@H]1C(=O)N[C@@H](Cc1c[nH]cn1)C(=O)N[C@@H](CO)C(=O)N[C@H](C(=O)N[C@H](C(=O)N[C@@H](CCCNC(=N)N)C(=O)N[C@H](C(=O)O)C(C)C)[C@@H](C)O)[C@@H](C)O` [Neuroligin] (Biotin-TFAAGFNSTGLPHSTTRV-OH; C-terminus assumed), the Classification in test [1] (PDZ KIAA807) is 3 (A450 nm 2-3); in test [3] (PDZ Mint 1, PDZ Domain 1, 2) it was 1 (A450 nm 0-1); in test [2] it was 1 (A450 nm 0-1).

For the molecule `CC[C@H](C)[C@H](NC(=O)[C@H](CCC(=O)O)NC(=O)[C@H](CC(N)=O)NC(=O)[C@H](CCCNC(=N)N)NC(=O)[C@H](Cc1ccccc1)NC(=O)[C@H](CC(N)=O)NC(=O)[C@H](CO)NC(=O)[C@H](CC(N)=O)NC(=O)[C@H](CCC(=O)O)NC(=O)[C@H](CO)NC(=O)[C@H](CC(=O)O)NC(=O)[C@H](CO)NC(=O)[C@@H](NC(=O)[C@@H](NC(=O)[C@H](CC(=O)O)NC(=O)[C@H](CCCCN)NC(=O)CCCC[C@@H]1SC[C@@H]2NC(=O)N[C@@H]21)[C@@H](C)CC)[C@@H](C)O)C(=O)N[C@@H](CCC(N)=O)C(=O)N[C@@H](CO)C(=O)N[C@@H](CC(C)C)C(=O)N[C@H](C(=O)O)C(C)C` [CD95] (Biotin-KDITSDSENSNFRNEIQSLV-OH; C-terminus assumed), the Classification in test [2] is reported as 1 (A450 nm 0-1).

For the molecule `CC[C@H](C)[C@H](NC(=O)[C@H](Cc1ccc(O)cc1)NC(=O)[C@@H](NC(=O)[C@@H]1CCCN1C(=O)[C@H](CCC(N)=O)NC(=O)[C@H](CCC(=O)O)NC(=O)[C@H](CCC(N)=O)NC(=O)[C@H](C)NC(=O)[C@@H](NC(=O)[C@H](CC(C)C)NC(=O)[C@H](CC(C)C)NC(=O)[C@H](CCCNC(=N)N)NC(=O)[C@H](Cc1ccc(O)cc1)NC(=O)[C@H](CCSC)NC(=O)[C@H](C)NC(=O)[C@H](C)NC(=O)[C@@H]1CCCN1C(=O)[C@H](CCSC)NC(=O)[C@@H](NC(=O)[C@H](CCCCN)NC(=O)CCCC[C@@H]1SC[C@@H]2NC(=O)N[C@@H]21)[C@@H](C)O)[C@@H](C)O)C(C)C)C(=O)O` [MINT-1] (Biotin-KTMPAAMYRLLTAQEQPVYI-OH; C-terminus assumed), the Classification in test [1] (PDZ KIAA0807(S), PDZ Domain 1) was 5 (A450 nm of 4 more than 2× repeated); in test [1] (PDZ KIAA807, PDZ Domain not given), 4 (A450 nm 3-4); in test [3] (PDZ Mint 1, PDZ Domain 1) it was 3 (A450 nm 2-3); in test [3] (PDZ Mint 1, PDZ Domain 1, 2), 5 (A450 nm of 4 more than 2× repeated); in test [2], 5 (A450 nm of 4 more than 2× repeated).

In the case of `CC(C)C[C@H](NC(=O)[C@H](C)NC(=O)[C@@H](NC(=O)[C@@H](NC(=O)[C@H](Cc1c[nH]cn1)NC(=O)[C@H](CC(C)C)NC(=O)CNC(=O)[C@H](CCC(N)=O)NC(=O)CNC(=O)CNC(=O)[C@H](C)NC(=O)[C@H](C)NC(=O)[C@H](CCCNC(=N)N)NC(=O)[C@H](C)NC(=O)[C@H](CO)NC(=O)[C@H](CC(=O)O)NC(=O)[C@H](CC(=O)O)NC(=O)[C@H](Cc1c[nH]c2ccccc12)NC(=O)[C@H](C)NC(=O)CCCC[C@@H]1SC[C@@H]2NC(=O)N[C@@H]21)C(C)C)[C@@H](C)O)C(=O)O` [LPAP] (Biotin-AWDDSARAAGGQGLHVTAL-OH; C-terminus assumed), the Classification in test [1] (PDZ KIAA807) is recorded as 5 (A450 nm of 4 more than 2× repeated); in test [3] (PDZ Mint 1, PDZ Domain 2) it was 1 (A450 nm 0-1); in test [2] it was 1 (A450 nm 0-1).

For the molecule `CC[C@H](C)[C@H](NC(=O)[C@H](C)NC(=O)[C@H](CC(C)C)NC(=O)[C@H](Cc1c[nH]c2ccccc12)NC(=O)[C@H](Cc1c[nH]cn1)NC(=O)[C@H](CCC(N)=O)NC(=O)[C@H](CC(C)C)NC(=O)[C@H](CCC(N)=O)NC(=O)[C@H](Cc1ccccc1)NC(=O)[C@H](CCC(N)=O)NC(=O)[C@H](CCCNC(=N)N)NC(=O)[C@@H](NC(=O)[C@H](CC(=O)O)NC(=O)[C@H](CCCNC(=N)N)NC(=O)[C@H](CCC(N)=O)NC(=O)[C@H](C)NC(=O)[C@@H](NC(=O)[C@H](CC(C)C)NC(=O)[C@H](Cc1c[nH]cn1)NC(=O)[C@H](Cc1c[nH]cn1)NC(=O)CCCC[C@@H]1SC[C@@H]2NC(=O)N[C@@H]21)C(C)C)[C@@H](C)CC)C(=O)O` [noradrenaline transporter] (Biotin-HHLVAQRDIRQFQLQHWLAI-OH; C-terminus assumed), the Classification is 3 (A450 nm 2-3) in test [3] (PDZ Mint 1, PDZ Domain 1, 2) and 3 (A450 nm 2-3) in test [2].

On to `CC[C@H](C)[C@H](NC(=O)[C@H](CCC(N)=O)NC(=O)CCCC[C@@H]1SC[C@@H]2NC(=O)N[C@@H]21)C(=O)N[C@@H](CO)C(=O)N1CCC[C@H]1C(=O)NCC(=O)NCC(=O)N[C@@H](CC(C)C)C(=O)N[C@@H](CCC(=O)O)C(=O)N1CCC[C@H]1C(=O)N1CCC[C@H]1C(=O)N[C@@H](CO)C(=O)N[C@@H](CCC(=O)O)C(=O)N[C@@H](CCCCN)C(=O)N[C@@H](Cc1c[nH]cn1)C(=O)N[C@@H](Cc1ccccc1)C(=O)N[C@@H](CCCNC(=N)N)C(=O)N[C@@H](CCC(=O)O)C(=O)N[C@H](C(=O)N[C@@H](CCC(=O)O)C(=O)N[C@H](C(=O)O)C(C)C)[C@@H](C)O` [Tax], for which the Classification in test [2] is 1 (A450 nm 0-1).

As to “LASKSAEEGKQIPDSLSTDL (Biotin-LASKSAEEGKQIPDSLSTDL) [Dock2]”, the Classification in test [2] is given as 1 (A450 nm 0-1).

Take “SLKPGTVLPPPPYRHRNTVV (Biotin-SLKPGTVLPPPPYRHRNTVV) [ErbB-4 receptor]”: the Classification in test [2] is listed as 1 (A450 nm 0-1).

Consider “GPVPGEPAKPKTSAHHATFV (Biotin-GPVPGEPAKPKTSAHHATFV)”, for which the Classification in test [2] is given as 1 (A450 nm 0-1).
